{"source": "paper PMC12067128", "about": "“Macrocyclization: Enhancing Drug-like Properties of Discoidin Domain Receptor Kinase Inhibitors” (ACS Medicinal Chemistry Letters, 2025)", "key": {"[1]": {"test": "BRlogD chromatographic lipophilicity", "type": "physicochemical", "settings": "XBridge Shield RP18, pH 7.0, 60% acetonitrile"}, "[2]": {"test": "log k'80 PLRP-S chromatographic descriptor", "type": "physicochemical", "settings": "surrogate of log Dtol", "excerpt": "(§1) Lipophilicity has been obtained in four different systems. BRlogD and ChromlogD are chromatographic surrogates of log Doct and, despite showing different values, are linearly correlated (Figure S4). Log k′ 80 PLRP-S is a surrogate of log Dtol. Log kw ^IAM mimics the interaction between the compounds and the phospholipids of membranes. The combination of the experimental lipophilicity descriptors is essential to evaluate lipophilicity in different regions of the membrane bilayer. This complete lipophilicity profile may give an idea of the permeability potential of poorly soluble compounds for which standard permeability measurements are unreliable. […] This is supported by its low IC50 value in the cell-based assay."}, "[3]": {"test": "ChromLogD chromatographic lipophilicity", "type": "physicochemical", "settings": "C18 column, pH 7.4", "method": "The chromatographic method was based on the differential retention times of test compounds on a C18 column (Luna C18(2), 30 x 2mm, […], 100 Å) under controlled liquid chromatography conditions, comparing retention times with those of standards (Benzyl Alcohol, p-Nitrophenol, Bromobenzene, Anthracene) with known log D values. Stock solutions (10 mM in DMSO) of test compounds were diluted to a final concentration of 1 mM. The mobile phases consisted of A (20mM Ammonium Acetate buffered to pH 7.4 with ammonia hydroxide) and B (ACN). The LC gradient profile was the following: a linear increase to 90% B during 0.0 to 1.3 min, hold at 90 % B during 1.3 to 1.53 min then back to 0.0% B from 1.53 to 1.60 min, hold at 0% B until the end of the run (2.00 min). 1 μL of the sample volume was injected, using a flow rate of 0.5 mL/min and a column temperature of 40°C. All compounds were detected by UPLC/MS analysis using a a Waters ACQUITY UPLC equipped with a Photo Diode Array (PDA) detector coupled with a Waters ACQUITY QDa single quadrupole mass spectrometer with an Electrospray ionization (ESI) source.\nThe retention times were obtained by processing data in Waters Openlynx. The standards are then plotted in excel and the best fit line was used as the basis for calculating the unknown LogD values from the retention times of the peaks obtained."}, "[4]": {"test": "Microsomes stability (clearance in human microsomes)", "type": "in vitro ADME", "settings": "liver microsomes, pH 7.4, 0.8 mg protein/mL, 1 mM NADPH, 37 °C, read-out: CLint h mic (clearance in human microsomes)", "method": "values in Caco-2 assay were: <10 nm/s = low level; 10-50 nm/s = medium level; >50 nm/s = high […]\nTest compounds were incubated, in duplicate, at the concentration of 1 μM with liver microsomes (0.8 mg protein/mL) in Dulbecco’s buffer (pH 7.4) at 37 °C in the presence of 1 mM NADPH. At different time points (0, 5, 10, 20, 30, and 60 min), 50 μL aliquots of the incubates were taken, added with 80 μL of ice-cold acetonitrile, and 20 μL of 1 μM warfarin in acetonitrile (injection check) to stop the reaction, and samples were centrifuged. The supernatants were analyzed by LC−MS/MS for unchanged compounds. Test compounds were incubated with liver microsomes in Dulbecco’s buffer in the absence of NADPH for 0 and 60 min, as control. Midazolam at the concentration of 1 μM, was incubated with microsomes as positive control for phase I activity of microsomes. Control samples were processed as test compound samples."}, "Kinetic solubility": {"test": "Kinetic solubility", "type": "physicochemical", "method": "Using a stock solution of test compound in 100% DMSO, duplicate dilutions were prepared at a nominal concentration of 200 µM in 0.1 M phosphate buffered saline (PBS) at pH 7.4, with a 2% final DMSO content. Test compound calibration standards were prepared at 200 µM and 10 µM in 100%\nDMSO. The PBS and DMSO dilutions were equilibrated on a shaking platform at room temperature for two hours prior to filtration using a Multiscreen HTS solubility filter plate (Millipore). Filtrates were analysed by LC-UV-MS and the concentration of compound in PBS filtrate determined by comparing the UV absorbance peak with that of the two DMSO calibration standards. Mass spectrometry will be used to confirm the presence of the expected molecular ion in the UV peak measured. The effective range of the assay is 5 – 200 µM. […]"}, "[5]": {"test": "Chamelogk chameleonicity descriptor", "type": "physicochemical", "settings": ">0.6 = chameleons, <0.6 = non-chameleons", "method": "Finally, chameleonicity was measured with the recently described Chamelogk method (Table ), where 0.6 is the threshold value to distinguish chameleons from non-chameleons."}, "[6]": {"test": "Δlog kW IAM polarity descriptor", "type": "physicochemical", "settings": "polarity in aqueous medium", "method": "(§2) Polarity is quantified by two descriptors: EPSA and Δlog kw ^IAM. The first is measured in an almost fully nonpolar environment, and the second describes polarity in an aqueous medium. […] This is also in line with the higher solubility of KIMCs over 1."}, "EPSA polarity descriptor": {"test": "EPSA polarity descriptor", "type": "physicochemical", "settings": "almost fully nonpolar environment; polarity in nonpolar environment", "method": "as §2"}, "[7]": {"test": "log kW IAM (immobilized artificial membrane chromatography)", "type": "physicochemical", "settings": "lipophilicity descriptor, phospholipid interaction", "excerpt": "as §1"}, "DDR1": {"biological_target": "T1, DDR1 (Homo sapiens, UniProt Q08345)", "T1 construct": "ProLink™ (PK) tagged full-length DDR1b; host or cells: U2OS human osteosarcoma cells (PathHunter U2OS DDR1)", "T1 sequence (Q08345 19-913)": "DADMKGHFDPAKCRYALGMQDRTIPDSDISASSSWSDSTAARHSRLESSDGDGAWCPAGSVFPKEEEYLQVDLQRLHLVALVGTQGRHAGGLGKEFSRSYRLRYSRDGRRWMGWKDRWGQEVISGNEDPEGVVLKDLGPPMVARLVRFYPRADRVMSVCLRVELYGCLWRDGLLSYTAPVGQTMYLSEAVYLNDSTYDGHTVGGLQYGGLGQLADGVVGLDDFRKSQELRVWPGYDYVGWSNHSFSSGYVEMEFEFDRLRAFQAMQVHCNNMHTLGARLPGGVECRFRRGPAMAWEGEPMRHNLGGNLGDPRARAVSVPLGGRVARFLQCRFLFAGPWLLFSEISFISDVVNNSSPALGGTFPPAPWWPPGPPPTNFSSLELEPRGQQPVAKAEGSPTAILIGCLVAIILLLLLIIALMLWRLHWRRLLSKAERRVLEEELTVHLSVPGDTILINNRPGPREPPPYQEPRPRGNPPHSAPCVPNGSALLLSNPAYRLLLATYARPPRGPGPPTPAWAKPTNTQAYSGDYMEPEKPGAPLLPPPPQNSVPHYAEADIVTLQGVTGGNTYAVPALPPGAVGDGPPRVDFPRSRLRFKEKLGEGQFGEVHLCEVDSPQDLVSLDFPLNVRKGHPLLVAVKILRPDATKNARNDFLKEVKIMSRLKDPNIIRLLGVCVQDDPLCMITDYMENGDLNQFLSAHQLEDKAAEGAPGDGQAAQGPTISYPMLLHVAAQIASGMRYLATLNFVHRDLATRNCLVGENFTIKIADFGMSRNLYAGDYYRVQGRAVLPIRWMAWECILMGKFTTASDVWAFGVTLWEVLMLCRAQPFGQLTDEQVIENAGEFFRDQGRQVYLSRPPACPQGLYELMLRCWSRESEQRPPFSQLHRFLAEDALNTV", "test": "PathHunter U2OS DDR1 Functional Assay (DDR1 cellular assay)", "type": "cell-based", "settings": "U2OS PathHunter cells, collagen II stimulation; read-out: Cell DDR1 IC50", "method": "page 17: In vitro Biology DDR1 cellular assay The activity of Discoidin Domain-containing Receptor protein kinase (DDR) inhibitors was determined using the PathHunter® U2OS DDR1 Functional Assay which employs Enzyme Fragment Complementation (EFC) technology, where the β-galactosidase (β-gal) enzyme is split into two fragments, ProLink (PK) and Enzyme Acceptor (EA). Independently these fragments […] β-gal enzyme. In the PathHunter® U2OS DDR1 Functional Assay, the U2OS human osteosarcoma cell line is modified to co-express a ProLinkTM (PK) tagged full-length DDR1b and an Enzyme Acceptor (EA) tagged SH2 domain. Collagen II, as a ligand, induces activation of DDR1b which results in cross-phosphorylation. The SH2-EA fusion protein then specifically binds the phosphorylated receptor resulting in complementation of the two fragments of β-gal and formation of a functional enzyme. β-gal activity is then quantitatively detected using a chemiluminescent substrate. PathHunter® Human U2OS DDR1 cells were prepared in AssayCompleteTM Cell Plating 16 Reagent (DiscoverX 93-0563R16A) and plated at 5000 cells/well in a 384-well white, clear-bottom, sterile plate (ThermoFisher 142762) and incubated for 90 minutes at 37 °C, 5% CO2. Test compounds were serially diluted from a top concentration of 10 mM (1000x final assay concentration) directly in a 384-well low-volume polypropylene plate (Greiner bio-one 784201) using an Echo 555 acoustic liquid handler (Labcyte). Test compounds were diluted in AssayCompleteTM Cell Plating 16 Reagent then added to cells using an Integra ViaFlow384 electronic reagent dispenser and pre-incubated at 37 °C, 5% CO2 for 30 minutes. Following compound pre-incubation, the cells were stimulated with 20 μg/ml Bovine Type II Collagen (DiscoverX 92-1090) with incubation for 20 hours at 37 °C, 5% CO2. Next, PathHunter Detection Reagent (DiscoverX 93-[…]) was added to the cells, incubated for 60 minutes at 25 °C in the dark, prior to capturing the chemiluminescent signal on a PHERAstar (BMG LABTECH). The percentage of inhibition was calculated for each concentration of compound using a 0.1% DMSO vehicle/Collagen II control response as a 0% inhibition and a 10 nM Dasatinib/Collagen II positive 17 page 18: control response as a 100% inhibition. The final assay concentration of the top of the test compound CRC was 10 μM. 18"}}}
{"molecule": "Cc1ccc(C(=O)Nc2cccc(C(F)(F)F)c2)cc1-c1cc2nc(Nc3cnn(C)c3)ncc2[nH]1", "note": "[Compound 1]", "values": [{"measurement": "BRlogD", "setting": "[1]", "value": 3.36}, {"measurement": "logk'80 PLRP-S", "setting": "[2]", "value": -0.3}, {"measurement": "chromatographic logD", "setting": "[3]", "value": 2.92}, {"measurement": "microsomal CLint at 1 h, 1 µM", "setting": "[4]", "value": "19 ± 2.1", "unit": "µL/min/mg"}, {"measurement": "kinetic solubility (in words)", "setting": "Kinetic solubility", "value": "almost insoluble"}, {"measurement": "solubility kinetic at 2 h", "setting": "Kinetic solubility; phosphate buffered saline, PBS pH 7.4, 2% DMSO, 2 h room temperature, assay range 5-200 µM, read-out: KS (kinetic solubility)", "value": "< 5", "unit": "µM"}, {"measurement": "Chamelogk", "setting": "[5]", "value": 0.99}, {"measurement": "Δlog kW^IAM", "setting": "[6]", "value": 0.47}, {"measurement": "EPSA", "setting": "EPSA polarity descriptor", "value": 106, "unit": "A^2"}, {"measurement": "log kW^IAM", "setting": "[7]", "value": 2.53}, {"measurement": "IC50", "setting": "DDR1", "value": 3, "unit": "nM"}]}
